Results as given in patent US20240101585A1, “HETEROAROMATIC PHOSPHONIUM SALTS AND THEIR USE TREATING CANCER” (FLORATEK PHARMA AG, priority 2021, published 2024).

Key:
[1] = tested on: MDA-MB-468; experiment: CellTiter-Glow Luminescent Cell Viability assay, MDA-MB-468 (breast); format: cell-based; conditions: Homo sapiens, 72 h, absolute IC50 (T/C=50%), read-out: IC50 against MDA-MB-468
Description: (§1) Antitumor activity of the compounds and doxorubicin as a positive control was assessed by using the CellTiter-Glow® Luminescent Cell Viability assay (Promega #G7572) according to the manufacturer's instructions. The compounds were tested at 5 or 6 concentrations in half-log increments (highest concentration 30 μM or 100 μM) in duplicate or triplicate well conditions.
(§2) Tumor cells were grown at 37° C. in a humidified atmosphere with 5% CO2 in RPMI 1640 or DMEM medium, supplemented with 10% (v/v) fetal calf serum and 50 μg/ml gentamicin for up to 20 passages, and were passaged once or twice weekly. Cells were harvested using TrypLE or PBS buffer containing 1 mM EDTA, and the percentage of viable cells was determined using a CASY Model TI cell counter (OMNI Life Science). Cells were harvested from exponential phase cultures, counted and plated in 96 well flat-bottom microtiter plates at a cell density depending on the cell line's growth rate (4,000-20,000 cells/well depending on the cell line's growth rate, up to 60,000 for hematological cancer cell lines) in RPMI 1640 or DMEM medium supplemented with 10% (v/v) fetal calf serum and 50 μg/ml gentamicin (140 μl/well). […] Viability of cells was quantified by or CellTiter-Glow® Luminescent Cell Viability assay (Promega #G7572). Luminescence was measured with a microplate luminometer (Promega or PerkinElmer. […]

[2] = tested on: KM12; experiment: CellTiter-Glow Luminescent Cell Viability assay, KM12 (colon); format: cell-based; conditions: Homo sapiens, 72 h, absolute IC50 (T/C=50%), read-out: IC50 against KM12
Description: as §1, §2

[3] = tested on: U937; experiment: CellTiter-Glow Luminescent Cell Viability assay, U937 (lymphoma); format: cell-based; conditions: Homo sapiens, U-937, 72 h, absolute IC50 (T/C=50%), read-out: IC50 against U937
Description: as §1, §2

[4] = tested on: Farage; experiment: CellTiter-Glow Luminescent Cell Viability assay, Farage (lymphoma); format: cell-based; conditions: 72 h, absolute IC50 (T/C=50%), read-out: IC50 against Farage
Description: as §1, §2

[5] = tested on: A375; experiment: CellTiter-Glow Luminescent Cell Viability assay, A375 (melanoma); format: cell-based; conditions: Homo sapiens, A-375, 72 h, absolute IC50 (T/C=50%), read-out: IC50 against A375
Description: as §1, §2

[6] = tested on: SK-Mel-5; experiment: CellTiter-Glow Luminescent Cell Viability assay, SK-Mel-5 (melanoma); format: cell-based; conditions: Homo sapiens, 72 h, absolute IC50 (T/C=50%), read-out: IC50 against SK-Mel-5
Description: as §1, §2

[7] = tested on: A2058; experiment: CellTiter-Glow Luminescent Cell Viability assay, A2058 (melanoma); format: cell-based; conditions: Homo sapiens, 72 h, absolute IC50 (T/C=50%), read-out: IC50 against A2058
Description: as §1, §2

[8] = In vivo tolerability, maximum tolerated dose in nude mice
Description: To assess the toxicity of the test compounds in vivo and to determine the maximum tolerated dose 4 BALB/c Nude male mice, 4-9 weeks old were injected intraperitoneally (i.p) with various doses of the drug or vehicle 2.5% DMSO/5% EtOH/20% PEG200 in saline. The volume of the injection was 5 ml/kg. The administered doses were confirmed by LC-UV or LC-MS/MS.
Mice were monitored for body weight before each injection and twice a day for clinical signs of toxicity.
All procedures related to animal handling, care and the treatment in the study were performed according to the guidelines of the Association for Assessment and Accreditation of Laboratory Animal Care (AAALAC).
In order to assess the in vivo toxicity of SND350 various doses of the drug were administered either as a single dose or repeat doses into nude mice.

[9] = tested on: breast and colon carcinomas, lymphoma and melanoma cancer cell growth; experiment: CellTiter-Glow cell viability assay, cancer cell line panel (summary statement); format: cell-based; conditions: lymphoma and melanoma cell lines of Table 2, read-out: IC50s, cancer cell growth inhibition
Description: as §1, §2

COc1c(O)cc(O)c2c(=O)cc(-c3ccc(CCCCC[P+](c4ccccc4)(c4ccccc4)c4ccccc4)cc3)oc12.[Br-] [SND350, (5-(4-(5,7-dihydroxy-8-methoxy-4-oxo-4H-chromen-2-yl)phenyl)pentyl)triphenylphosphonium bromide] gave an IC50 [1] of 2800 nM, an IC50 [2] of 2800 nM and an IC50 [3] of 2900 nM. The IC50 [4] was 800 nM, the IC50 [5] was 8.9 µM and the IC50 [6] was 2100 nM. The IC50 [7] was 6.5 µM, the “tolerability of multiple administrations” value ([8]; i.p., qod for a total of 7 injections, 10 mg/kg/inj) was “well tolerated” and the MTD ([8]; male, BALB/c Nude, mouse, in vivo, ip, single i.p. administration) was 40 mg/kg. The IC50 [9] was under 10 µM.
